Measurements reported in paper PMC5913971, “A Novel Piperazine-Based Drug Lead for Cryptosporidiosis from the Medicines for Malaria Venture Open-Access Malaria Box” (Antimicrobial Agents and Chemotherapy, 2018).
Like-named read-outs stand apart in the source and are kept apart here.

Key:
[1] = system: C. parvum Iowa isolate; assay: Immunofluorescence assay for C. parvum growth inhibition in HCT-8 cells; assay type: cell-based, Cryptosporidium parvum; details: Table S1, confirmed screening hits, read-out: C. parvum EC50 (95% CI)
Procedure: Inhibition of C. parvum growth was measured as described previously ([20]). Oocysts were excysted by treatment with 10 mM hydrochloric acid (10 min at 37°C), followed by exposure to 2 mM sodium taurocholate (Sigma-Aldrich) in PBS for 10 min at 16°C. Excysted oocysts were then added to >95% confluent HCT-8 cell monolayers in 384-well plates at a concentration of 5,500 Iowa isolate oocysts per well. For C. parvum field isolates, the inoculum required to yield an infection level similar to that produced by 5,500 Iowa isolate oocysts per well was determined and was used for subsequent assays of parasite inhibition. Compounds were added just before or 3 h after infection, and assay plates were incubated for 48 h postinfection at 37°C under 5% CO2. Wells were then washed three times with PBS containing 111 mM D-galactose, fixed with 4% paraformaldehyde in PBS for 15 min at room temperature, permeabilized with 0.25% Triton X-100 for 10 min at 37°C, washed three times with PBS with 0.1% Tween 20, and blocked with 4% bovine serum albumin (BSA) in PBS for 2 h at 37°C or 4°C overnight. Parasitophorous vacuoles were stained with 1.33 μg/ml of fluorescein-labeled Vicia villosa lectin (Vector Laboratories) diluted in 1% BSA in PBS with 0.1% Tween 20 for 1 h at 37°C, followed by the addition of Hoechst 33258 (AnaSpec) at a final concentration of 0.09 mM diluted in water for another 15 min at 37°C. Wells were then washed five times with PBS containing 0.1% Tween 20. A Nikon Eclipse TE2000 epifluorescence microscope with an automated stage was programmed using NIS-Elements Advanced Research software (Nikon, USA) to focus on the center of each well and take a 3-by-3 composite image using an EXi Blue fluorescence microscopy camera (QImaging, Canada) with a 20× objective (numerical aperture, 0.45). Nucleus and parasite images were exported separately as .tif files and were analyzed using macros developed on the ImageJ platform (National Institutes of Health) ([20]). The only modification from the published macro used to count parasites was that the lower size threshold for parasites was decreased from 16.5 to 4 pixels (1 pixel = 0.65 μm). Graphs were plotted, and half-maximal effective concentration (EC50) and 90% effective concentration (EC90) values were calculated using GraphPad Prism software, version 6.01. For every C. parvum field isolate experiment, a dose-response experiment against the C. parvum Iowa isolate was performed simultaneously as a reference.

[2] = system: C. parvum Iowa isolate; assay: NOD SCID gamma (NSG) mouse model of chronic cryptosporidiosis, fecal qPCR; assay type: in vivo, NOD SCID gamma mice; details: for short-term efficacy on oocyst shedding in NSG mice: Fig. 2B, dose not given
Procedure: All NOD SCID gamma mouse studies were performed in compliance with animal care guidelines and were approved by the University of Vermont Institutional Animal Care and Use Committee. NOD SCID gamma mice with normal flora (NOD.Cg-Prkdc^scid Il2rg^tm1Wjl/SzJ) ([38]) were purchased from The Jackson Laboratory (Bar Harbor, ME, USA) and were housed for at least a week for acclimatization. At the age of 4 to 5 weeks, mice were infected with 10^5 C. parvum Iowa isolate oocysts. Fecal oocyst shedding is detected 6 days after infection using a quantitative PCR (qPCR assay), so treatment was started on day 7 after infection. Mice (4 per experimental group) were treated either orally (p.o.) with MMV665917 at 30 or 60 mg/kg BID, intraperitoneally (i.p.) with MMV665917 at 60 mg/kg BID, or p.o. with 1,000 mg/kg paromomycin BID. MMV665917 was suspended in DMSO, sonicated three times, for 30 s each time, to obtain a fine suspension, aliquoted, and stored at −80°C for <10 days. On the day of treatment, aliquots of MMV665917 diluted in DMSO were thawed, mixed well using a vortexer, diluted with 1% HPMC, sonicated as before (three times for 30 s each time), mixed well, and given to mice either p.o. or by i.p. injection. A final concentration of 5% DMSO was used in 100 μl of 1% HPMC per dose. For the additional Malaria Box compounds and compound variants tested, the doses were prepared in the same way, and the specific dosages tested are given in Table S3 in the supplemental material. Mice were treated for either 4 or 7 days, allowed to recover for a week, and then sacrificed. Oocyst shedding in feces was monitored throughout by qPCR, including time points while on treatment and while monitoring for relapsed infection following completion of treatment in Fig. 2A.

[3] = system: C. parvum; assay: Parasite persistence (time-kill) assay in HCT-8 cells; assay type: cell-based, Cryptosporidium parvum; details: for parasite persistence: highest nontoxic concentrations, added 24 h after infection
Procedure: Excysted C. parvum oocysts were added to >90% confluent HCT-8 cells in 384-well plates. […] At ∼24 h (i.e., the time of compound addition) and at various time intervals thereafter, parasites were washed, fixed, permeabilized, stained, and imaged as for the C. parvum growth assay. For the extended-compound-exposure experiments, the medium and compound were replaced every 3 days. A separate 384-well plate was used for each time interval. Parasite numbers were normalized to host cell nucleus numbers and are expressed as the percentage of parasites per host cell nucleus. In order to fit parasite decay curves, the effect of drugs was isolated from expected changes in parasite numbers over time by expressing the number of parasites as the percentage of the number of parasites with the control, dimethyl sulfoxide (DMSO), for each time point. Exponential decay curves were fit using GraphPad Prism software, version 6.01, and curve validity was assessed using the replicates test.

[4] = system: C. parvum Iowa isolate; assay: IFN-γ knockout mouse model of acute cryptosporidiosis; assay type: in vivo, C57BL/6 IFN-γ−/− mice; details: dose not given
Procedure: All interferon gamma (IFN-γ) knockout mouse studies were performed in compliance with animal care guidelines and were approved by the Explora BioLabs (San Diego, CA) Institutional Animal Care and Use Committee. Four-week-old female C57BL/6 IFN-γ^−/− mice with normal flora were purchased from The Jackson Laboratory and were acclimated for 3 days prior to infection by oral gavage with 10^6 C. parvum Iowa isolate oocysts (Sterling Parasitology Laboratory, University of Arizona) suspended in sterile distilled water. At various times postinfection, mice were treated with the compound vehicle alone, clofazimine (used as a positive control), or MMV665917. As described previously, fecal parasite shedding was quantified at various times postinfection by isolating oocysts using a sucrose gradient centrifugation method ([39]), followed by staining for immunofluorescence microscopy using a fluorescein isothiocyanate-conjugated mouse anti-Cryptosporidium antibody (0.25 μg per sample) and analysis with a Guava easyCyte flow cytometer and CytoSoft data acquisition and analysis software (version 5.3; Guava Technologies, Inc.). Oocyst counts per milliliter of sample were exported to Excel (Microsoft Corp.) and were normalized to counts per milligram of feces. Final data analysis and graphing were carried out using GraphPad Prism software (version 6.01).

[5] = dose 50 mg/kg, interval 12 h, duration 4 days
[6] = dose 100 mg/kg, interval 24 h, duration 7 days

Structure (SMILES) | EC50 ([1]; Cryptosporidium parvum, HCT-8) [nM] | NSG efficacy [2, 5] | also measured
Cc1ccnc(NC(c2cccc(OCc3ccccc3)c2)c2ccc3cccnc3c2O)c1 (stereo not shown) [MMV000720, Cc1ccnc(NC(c2cccc(OCc3ccccc3)c2)c4ccc5cccnc5c4O)c1] | 210 |  | 
Oc1c(CN2CCN(c3ccccc3F)CC2)cc(Br)c2cccnc12 [MMV000760, Oc1c(CN2CCN(CC2)c3ccccc3F)cc(Br)c4cccnc14] | 290 |  | 
CSc1ccccc1C(=O)Nc1nc(-c2ccccn2)cs1 [MMV001246, CSc1ccccc1C(=O)Nc2nc(cs2)c3ccccn3] | 1800 | No | 
c1ccc(CNc2nc(NC3CCCC3)nc3ccccc23)cc1 [MMV006169 v2, C1CCC(C1)Nc1nc(NCc2ccccc2)c2c(n1)cccc2] |  | No | 
COc1ccc(Nc2nc(NCc3ccccc3Cl)c3ccccc3n2)cc1Cl [MMV006169 v3, COc1ccc(cc1Cl)Nc1nc(NCc2ccccc2Cl)c2c(n1)cccc2] |  | No | 
c1ccc(CNc2nc(Nc3ccccc3)nc3ccccc23)cc1 [MMV006169, C(Nc1nc(Nc2ccccc2)nc3ccccc13)c4ccccc4] |  | No | EC50 [1]: 1500 nM
Cc1cc(=O)oc2c1ccc1oc(C(=O)c3ccccc3)c(C)c12 [MMV006753, CC1=CC(=O)Oc2c1ccc3oc(C(=O)c4ccccc4)c(C)c23] | 250 |  | 
O=C1c2ccc3c4c(ccc(c24)C(=O)N1CCCCO)C(=O)N(CCCCO)C3=O [MMV009085, OCCCCN1C(=O)c2ccc3C(=O)N(CCCCO)C(=O)c4ccc(C1=O)c2c34] | 2600 |  | 
COc1cccc(Nc2nc(NCCO)c3ccccc3n2)c1 [MMV011944, n1c(NCCO)c2c(cccc2)nc1Nc3cccc(OC)c3] | 3500 |  | 
COc1ccc(C(=O)Nc2cc(C)nn2-c2nc3c(cnn3-c3cccc(C)c3)c(=O)[nH]2)c(OC)c1 [MMV403679 v1, c31c(cnn1-c2cc(ccc2)C)C(=O)NC(=N3)n4c(cc(n4)C)NC(=O)c5c(cc(cc5)OC)OC] |  |  | NSG efficacy [2, 6]: No
Cc1cccc(-n2ncc3c(=O)[nH]c(-n4nc(C)cc4NC(=O)C4CC4)nc32)c1 [MMV403679 v2, c31c(cnn1-c2cc(ccc2)C)C(=O)NC(=N3)n4c(cc(n4)C)NC(=O)C5CC5] |  |  | NSG efficacy [2, 6]: No
Cc1cccc(-n2ncc3c(=O)[nH]c(-n4nc(C)cc4NC(=O)C4CCCC4)nc32)c1 [MMV403679 v3, c31c(cnn1-c2cc(ccc2)C)C(=O)NC(=N3)n4c(cc(n4)C)NC(=O)C5CCCC5] |  |  | NSG efficacy [2, 6]: No
Cc1cc(NC(=O)c2cc3ccccc3o2)n(-c2nc3c(cnn3-c3ccccc3)c(=O)[nH]2)n1 [MMV403679 v4, c31c(cnn1-c2ccccc2)C(=O)NC(=N3)n4c(cc(n4)C)NC(=O)c5oc6c(c5)cccc6] |  |  | NSG efficacy [2, 6]: No
Cc1cccc(-n2ncc3c(=O)[nH]c(-n4nc(C)cc4N)nc32)c1 [MMV403679 v5, c31c(cnn1-c2cc(ccc2)C)C(=O)NC(=N3)n4c(cc(n4)C)N] |  |  | NSG efficacy [2, 6]: No
Cc1cccc(-n2ncc3c(=O)[nH]c(-n4nc(C)cc4NC(=O)c4cc5ccccc5o4)nc32)c1 [MMV403679, c1(c(cnn1c2cccc(C)c2)C(=O)N3)N=C3n4nc(C)cc4NC(=O)c5cc(cccc6)c6o5] |  |  | EC50 [1]: 120 nM
Oc1c(C(Nc2ccccn2)c2cccc(Oc3ccccc3)c2)ccc2cccnc12 (stereo not shown) [MMV665814, Oc1c(ccc2cccnc12)C(Nc3ccccn3)c4cccc(Oc5ccccc5)c4] | 590 | No | 
O=C(Nc1ccc(Cl)c(Cl)c1)Nc1ccc(Cl)c(Cl)c1 [MMV665852, Clc1ccc(NC(=O)Nc2ccc(Cl)c(Cl)c2)cc1Cl] | 3400 |  | 
O=C(Nc1nc(-c2ccccn2)cs1)c1ccccc1Br [MMV665909, Brc1ccccc1C(=O)Nc2nc(cs2)c3ccccn3] | 3300 | No | 
CN(C)c1ccc(C(O)(c2ccc(N(C)C)cc2)c2ccc(N(C)C)cc2)cc1 [MMV665941, CN(C)c1ccc(cc1)C(O)(c2ccc(cc2)N(C)C)c3ccc(cc3)N(C)C] | 830 | No | 
COc1cccc(C(=O)NC(c2ccc(C)cc2)c2cc(Cl)c3cccnc3c2O)c1 (stereo not shown) [MMV665969, COc1cccc(c1)C(=O)NC(c2ccc(C)cc2)c3cc(Cl)c4cccnc4c3O] | 54 | No | 
COc1ccc(C(=O)NC(c2ccc(Cl)cc2Cl)c2cc(Cl)c3cccnc3c2O)cc1 (stereo not shown) [MMV666054, COc1ccc(cc1)C(=O)NC(c2ccc(Cl)cc2Cl)c3cc(Cl)c4cccnc4c3O] | 810 |  | 
CC(C)/N=c1\cc2n(-c3ccc(Cl)cc3)c3ccccc3nc-2cc1Nc1ccc(Cl)cc1 [clofazimine] |  |  | short-term efficacy on oocyst shedding in NSG mice [2]: completely lacked efficacy; parasiticidal or parasitistatic for C. parvum [3]: parasitistatic; parasite persistence [3]: parasites persist; efficacy in IFN-γ KO mouse model of acute infection [4]: confirmed
CC(=O)Oc1ccccc1C(=O)Nc1ncc([N+](=O)[O-])s1 [nitazoxanide] |  |  | short-term efficacy on oocyst shedding in NSG mice [2]: did not reduce oocyst shedding; parasiticidal or parasitistatic for C. parvum [3]: parasitistatic; parasite persistence [3]: parasites persist
NC[C@@H]1O[C@H](O[C@H]2[C@@H](O)[C@H](O[C@@H]3[C@@H](O)[C@H](N)C[C@H](N)[C@H]3O[C@H]3O[C@H](CO)[C@@H](O)[C@H](O)[C@H]3N)O[C@@H]2CO)[C@H](N)[C@@H](O)[C@@H]1O [paromomycin] |  |  | short-term efficacy on oocyst shedding in NSG mice [2]: ineffective; relapse after cessation of treatment ([2]; paromomycin 1,000 mg/kg p.o. BID, 7 days): relapsed promptly; parasiticidal or parasitistatic for C. parvum [3]: parasitistatic; percentage of host cells infected, extended treatment ([3]; day 13 of treatment, 12 × EC90, medium and drug replaced every 3 days): closely mirrored the pattern for the vehicle control; parasite persistence [3]: parasites persist; efficacy in IFN-γ KO mouse model of acute infection [4]: good efficacy
